# Reference: patent publication US10987389B2, “Anti-tumor traditional Chinese medicine microbial fermentation preparation and a preparation method and application thereof” (priority 2014, dated 2021)
# Values joined by “and” are separate entries in the source; they are usually repeats but may differ in a detail not shown here. Equal entries are not always repeated.
# Assays:
# Type in all cases: in vivo
# [1] = test system: mouse transplantable S180 solid tumor; experiment: Effects of oral administration of the compound powder on mouse S180 solid tumor; conditions: Dosage 0.2 ml/10 g × 9
# Procedure: (§1) A suspension of 10% was prepared from the traditional Chinese medicine compound powder provided by the present invention and then stored in a refrigerator. The suspension would be shaken up before use. Tumor strain: Heps, S180 and ESC were all commercially available products. Animal: Kunming mice provided by the animal laboratories of Shenyang Pharmaceutical University and China Pharmaceutical University. Method: referring to the following literatures: Literature 1: chief editor Xu Shuyun. Methodology of Pharmacological Experiment, Beijing: People's Medical Publishing House 1982, 1115-1125. Literature 2: China Academic Conference on Tumor Pharmacology and Chemotherapy: In-vivo Efficacy Test Procedures of Anticancer Drugs, internal data. 1989. 2. Effects of the Traditional Chinese Medicine Compound Powder on S180 Solid Tumor […]
# [2] = test system: mouse Ehrlich Ascites Cancer (EAC) solid tumor; experiment: Effects of oral administration of the compound powder on mouse Ehrlich Ascites Cancer (EAC) solid tumor; conditions: Dosage 0.2 ml/10 g × 9
# Procedure: as §1, with “1989. 3.” for “1989. 2.”, “on ESC” for “on S180”
# [3] = test system: mouse transplantable Heps solid tumor; experiment: Effects of oral administration of the compound powder on mouse Heps solid tumor; conditions: for Inhibition rate / Tumor weight (g) (X ± SD): mouse Heps solid tumor; for Weight (g) Beginning: body weight at beginning; for Weight (g) Beginning / Weight (g) End: Heps; for Weight (g) End: body weight at end
# Procedure: as §1, with “1989. 1.” for “1989. 2.”, “on Heps” for “on S180”
structure (smiles),measurement,setting,value
"O=c1[nH]cc(F)c(=O)[nH]1 [0.15% 5-Fu, 5-Fu]",Inhibition rate,[1]; mouse S180 solid tumor,61.80% and 60.53% and 42.62%
same,Tumor weight (g) (X ± SD),[1]; mouse S180 solid tumor,1.36 ± 0.44 g and 1.33 ± 0.31 g and 1.87 ± 1.03 g
same,Weight (g) Beginning,"[1]; body weight at beginning, S180",21.80 g and 21.30 g and 20.78 g
same,Weight (g) End,"[1]; body weight at end, S180",24.70 g and 23.60 g and 20.00 g
same,Inhibition rate,[2]; mouse EAC solid tumor,64.85% and 66.85% and 65.36%
same,Tumor weight (g) (X ± SD),[2]; mouse EAC solid tumor,1.23 ± 0.43 g and 1.31 ± 0.65 g and 1.33 ± 0.63 g
same,Weight (g) Beginning,"[2]; body weight at beginning, EAC",20.90 g and 21.45 g and 20.85 g
same,Weight (g) End,"[2]; body weight at end, EAC",26.80 g and 22.20 g and 26.90 g
same,Inhibition rate,[3]; Dosage 0.1 ml/10 g × 8,65.75% and 56.62%
same,Tumor weight (g) (X ± SD),[3]; Dosage 0.1 ml/10 g × 8,1.12 ± 0.85 g and 0.59 ± 0.27 g
same,Inhibition rate,[3]; Dosage 0.1 ml/10 g × 9,58.55%
same,Tumor weight (g) (X ± SD),[3]; Dosage 0.1 ml/10 g × 9,1.05 ± 0.54 g
same,Weight (g) Beginning,[3]; Dosage 0.1 ml/10 g × 8,21.30 g and 18.95 g
same,Weight (g) Beginning,[3]; Dosage 0.1 ml/10 g × 9,21.00 g
same,Weight (g) End,[3]; Dosage 0.1 ml/10 g × 8,24.80 g and 20.22 g
same,Weight (g) End,[3]; Dosage 0.1 ml/10 g × 9,25.86 g
